Data on 23 compounds can be found in patent US6410558B1, “Fungicides for the control of take-all disease of plants” (Monsanto Technology LLC, priority 1991, dated 2002).

The assay relates to Gaeumannomyces graminis var. tritici (Ggt). Put plainly: In vitro Assay: mycelial growth of Ggt on minimal media agar plates containing test compound. In kind it is cell-based. The settings on record: dark, 19-20° C., 4 to 5 days, diameter of mycelial growth; for inhibition at 0.1 ppm / inhibition at 1 ppm / inhibition at 10 ppm: Gaeumannomyces graminis; for inhibition at 0.1 ppm: read-out: In vitro (ppm) 0.1, Percent Inhibition; for inhibition at 1 ppm: read-out: In vitro (ppm) 1, Percent Inhibition; for inhibition at 10 ppm: read-out: In vitro (ppm) 10, Percent Inhibition. The procedure, abridged: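 Ggt mycelial diameter read after 4 to 5 days in darkness at 19-20° C, from three 4-mm plugs placed on Czapek Dox minimal agar containing test compound delivered in acetone. Inhibition expressed as percent versus untreated plates, plug size (4 mm) subtracted from both.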

Bounds are passed on as bounds.

Take `CCNC(=O)c1c(I)cccc1[Si](C)(C)C` [Example 207, N-Ethyl-2-iodo-6-(trimethylsilyl)benzamide]: the inhibition (commonly the percentage by which the read-out fell short of the control) at 0.1 ppm (0.1 ppm in minimal media agar) was 31%. The inhibition at 1 ppm (1 ppm in minimal media agar) is 90%. Besides, the inhibition at 10 ppm (10 ppm in minimal media agar) is 97%.

Turning to `CCNC(=O)c1c(Cl)cc(C(C)(C)C)cc1[Si](C)(C)C` [Example 235, 2-Chloro-4-(1,1-dimethylethyl)-N-ethyl-6-(trimethylsilyl)benzamide], the inhibition at 0.1 ppm (0.1 ppm in minimal media agar) was found to be 3%. The inhibition at 1 ppm (1 ppm in minimal media agar) is under 0%. The inhibition at 10 ppm (10 ppm in minimal media agar) worked out at 70%.

Turning to `C[Si](C)(C)c1ccc(F)c([Si](C)(C)C)c1C(=O)N1CCCC1` [Example 118, 1-[3-Fluoro-2,6-bis(trimethylsilyl)benzoyl]pyrrolidine], the inhibition at 0.1 ppm (0.1 ppm in minimal media agar) is under 0%. Besides, the inhibition at 1 ppm (1 ppm in minimal media agar) is under 0%. Also, the inhibition at 10 ppm (10 ppm in minimal media agar) came out at 38%.

In the case of `C[Si](C)(C)c1cccc(Cl)c1C(=O)N1CC=CCC1` [Example 148, 1-[2-Chloro-6-(trimethylsilyl)benzoyl]-1,2,3,6-(tetrahydro)pyridine], the “In vitro (ppm) 0.1, Percent Inhibition” value (0.1 ppm in minimal media agar) is reported as “N (If the calculation resulted in “0” or less, as compared to the untreated control, a “N” is shown to indicate no control.)”. For the setting “1 ppm in minimal media agar”, the “In vitro (ppm) 1, Percent Inhibition” value was “N (If the calculation resulted in “0” or less, as compared to the untreated control, a “N” is shown to indicate no control.)”. The “In vitro (ppm) 10, Percent Inhibition” value (10 ppm in minimal media agar) is recorded as 53%.

`CCNC(=O)c1cccn1C[Si](C)(C)C` [Example 253, N-Ethyl-1-[(trimethylsilyl)methyl]-1H-pyrrole-2-carboxamide]: the inhibition at 0.1 ppm (0.1 ppm in minimal media agar) was under 0%. Under “1 ppm in minimal media agar”, the inhibition at 1 ppm came to 14%. Also, the inhibition at 10 ppm (10 ppm in minimal media agar) stood at 62%.

As for `C[Si](C)(C)c1cccc(Cl)c1NC(=O)C(Cl)(Cl)Cl` [Example 175, 2,2,2-Trichloro-N-[2-chloro-6-(trimethylsilyl)phenyl]acetamide], the inhibition at 0.1 ppm (0.1 ppm in minimal media agar) was 35%. Moreover, for the setting “1 ppm in minimal media agar”, the inhibition at 1 ppm is 48%. For the same compound, where the note is “10 ppm in minimal media agar”, the inhibition at 10 ppm is 60%.

For the compound `CCNC(=O)c1c(F)cccc1[Si](C)(C)C` [Example 117, N-Ethyl-2-fluoro-6-(trimethylsilyl)benzamide], the inhibition at 0.1 ppm (0.1 ppm in minimal media agar) was 36%. Where the note is “1 ppm in minimal media agar”, the inhibition at 1 ppm turned out to be 94%. Also, for the setting “10 ppm in minimal media agar”, the inhibition at 10 ppm was 97%.

For the compound `CC(C)c1ccccc1NC(=O)c1c(Cl)cccc1[Si](C)(C)C` [Example 156, 2-Chloro-N-[2-(1-methylethyl)phenyl]-6-(trimethylsilyl)benzamide], the inhibition at 0.1 ppm (0.1 ppm in minimal media agar) worked out at 9%. Further, the inhibition at 1 ppm (1 ppm in minimal media agar) was determined as 33%. For the same compound, the inhibition at 10 ppm (10 ppm in minimal media agar) was 72%.

Regarding `CCNC(=S)c1c(Cl)cccc1[Si](C)(C)C` [Example 76, 2-Chloro-N-ethyl-6-(trimethylsilyl)thiobenzamide], for the setting “0.1 ppm in minimal media agar”, the inhibition at 0.1 ppm is under 0%. Moreover, for the setting “1 ppm in minimal media agar”, the inhibition at 1 ppm amounted to 45%. Further, the inhibition at 10 ppm (10 ppm in minimal media agar) amounted to 79%.

Take `CCNC(=O)c1c(Br)ccc(OC)c1[Si](C)(C)C` [Example 236, 6-Bromo-N-ethyl-3-methoxy-2-(trimethylsilyl)benzamide]: the inhibition at 0.1 ppm (0.1 ppm in minimal media agar) was under 0%. The inhibition at 1 ppm (1 ppm in minimal media agar) was 68%. The inhibition at 10 ppm (10 ppm in minimal media agar) amounted to 86%.

For the compound `COc1cccc(CNC(=O)c2c(Cl)cccc2[Si](C)(C)C)c1` [Example 139, 2-Chloro-N-[(3-methoxyphenyl)methyl]-6-(trimethylsilyl)benzamide], the inhibition at 0.1 ppm (0.1 ppm in minimal media agar) is 11%. The inhibition at 1 ppm (1 ppm in minimal media agar) was determined as 53%. For the same compound, under “10 ppm in minimal media agar”, the inhibition at 10 ppm was found to be 100%.

In the case of `CCNC(=O)c1c([Si](C)(C)C)ccc(I)c1Cl` [Example 239, 2-Chloro-N-ethyl-3-iodo-6-(trimethylsilyl)benzamide], where the note is “0.1 ppm in minimal media agar”, the inhibition at 0.1 ppm was determined as 22%. Further, the inhibition at 1 ppm (1 ppm in minimal media agar) was found to be 57%. For the same compound, the inhibition at 10 ppm (10 ppm in minimal media agar) was 87%.

As for `CCN(COC)C(=O)c1c(C)cccc1[Si](C)(C)C` [Example 127, N-Ethyl-N-(methoxymethyl)-2-methyl-6-(trimethylsilyl)benzamide], the inhibition at 0.1 ppm (0.1 ppm in minimal media agar) was under 0%. Besides, the inhibition at 1 ppm (1 ppm in minimal media agar) stood at 21%. In addition, the inhibition at 10 ppm (10 ppm in minimal media agar) was 74%.

On to `CC(CO)NC(=O)c1c(Cl)cccc1[Si](C)(C)C` (stereo not drawn) [Example 154, 2-Chloro-N-(2-hydroxy-1-methylethyl)-6-(trimethylsilyl)benzamide], for which the inhibition at 0.1 ppm (0.1 ppm in minimal media agar) was under 0%. Besides, the inhibition at 1 ppm (1 ppm in minimal media agar) is under 0%. Besides, the inhibition at 10 ppm (10 ppm in minimal media agar) is 69%.

Turning to `CCN(CC)C(=O)c1c(F)cccc1[S+]([O-])C(C)(C)C` (stereo not drawn) [Example 195, N,N-Diethyl 2-[(1,1-dimethylethyl)sulfinyl]-6-fluorobenzamide], under “0.1 ppm in minimal media agar”, the inhibition at 0.1 ppm amounted to 35%. The inhibition at 1 ppm (1 ppm in minimal media agar) was found to be 29%. In addition, for the setting “10 ppm in minimal media agar”, the inhibition at 10 ppm amounted to 56%.

As to `CN(C)NC(=O)c1c([Si](C)(C)C)ccc(Cl)c1Cl` [Example 205, 2,3-Dichloro-6-(trimethylsilyl)benzoic acid, 2,2-dimethylhydrazide], the inhibition at 0.1 ppm (0.1 ppm in minimal media agar) was 5%. Also, the inhibition at 1 ppm (1 ppm in minimal media agar) amounted to 47%. The inhibition at 10 ppm (10 ppm in minimal media agar) was 81%.

For the compound `Cc1ccccc1NC(=O)c1ccccc1[Si](C)(C)C` [Example 121, N-(2-Methylphenyl)-2-(trimethylsilyl)benzamide], the inhibition at 0.1 ppm (0.1 ppm in minimal media agar) was determined as 4%. The inhibition at 1 ppm (1 ppm in minimal media agar) was found to be 8%. Under “10 ppm in minimal media agar”, the inhibition at 10 ppm stood at 31%.

`CCOCCN(CC)C(=O)c1c(Cl)cccc1[Si](C)(C)C` [Example 128, 2-Chloro-N-(2-ethoxyethyl)-N-ethyl-6-(trimethylsilyl)benzamide]: where the note is “0.1 ppm in minimal media agar”, the inhibition at 0.1 ppm came to 4%. Further, the inhibition at 1 ppm (1 ppm in minimal media agar) stood at 8%. For the same compound, the inhibition at 10 ppm (10 ppm in minimal media agar) was 50%.

For `CCN(CC)C(=O)c1c([Si](C)(C)C)coc1[Si](C)(C)C` [Example 250, N,N-Diethyl-2,4-bis(trimethylsilyl)-3-furancarboxamide], under “0.1 ppm in minimal media agar”, the inhibition at 0.1 ppm is under 0%. Besides, the inhibition at 1 ppm (1 ppm in minimal media agar) was under 0%. Further, under “10 ppm in minimal media agar”, the inhibition at 10 ppm was found to be 41%.

`C=CCN(SC)C(=O)c1sc(Cl)cc1[Si](C)(C)C` [Example 273, 5-Chloro-N-(methylthio)-N-2-propenyl-3-(trimethylsilyl)-2-thiophenecarboxamide]: the inhibition at 0.1 ppm (0.1 ppm in minimal media agar) is 35%. The inhibition at 1 ppm (1 ppm in minimal media agar) is 48%. In addition, the inhibition at 10 ppm (10 ppm in minimal media agar) amounted to 100%.

`CCNC(=O)c1c(Cl)ccc(N)c1[Si](C)(C)C` [Example 233, 3-Amino-6-chloro-N-ethyl-2-(trimethylsilyl)benzamide]: where the note is “0.1 ppm in minimal media agar”, the inhibition at 0.1 ppm stood at 28%. Besides, the inhibition at 1 ppm (1 ppm in minimal media agar) is 24%. Besides, the inhibition at 10 ppm (10 ppm in minimal media agar) amounted to 76%.

As for `CCN(Cc1ccco1)C(=O)c1c(Cl)cccc1[Si](C)(C)C` [Example 125, 2-Chloro-N-ethyl-N-(2-furylmethyl)-6-(trimethylsilyl)benzamide], the inhibition at 0.1 ppm (0.1 ppm in minimal media agar) was under 0%. In addition, the inhibition at 1 ppm (1 ppm in minimal media agar) is under 0%. Further, the inhibition at 10 ppm (10 ppm in minimal media agar) was determined as 89%.

For the compound `CN(Cc1ccc(C(C)(C)C)cc1)C(=O)c1c(Cl)cccc1[Si](C)(C)C` [Example 101, 2-Chloro-N-[[4-(1,1-dimethylethyl)phenyl]methyl]-N-methyl-6-(trimethylsilyl)-benzamide], the inhibition at 0.1 ppm (0.1 ppm in minimal media agar) amounted to 10%. For the same compound, for the setting “1 ppm in minimal media agar”, the inhibition at 1 ppm turned out to be 21%. Moreover, the inhibition at 10 ppm (10 ppm in minimal media agar) was 62%.
